Results as given in patent US4079140A, “Benzothienyl aminoethyl ketones and their application in therapeutics” (Innothera, priority 1975, dated 1978).
Converted amounts (≈) assume the structure as drawn. “And” between values parts separate entries of the source, which are not always exact repeats. Equal values may be shown once. Where a name gives a salt, the structure may show the parent alone. Read-outs that look alike come from different tables or passages of the source.

Tests used:
[1] = system: rat's isolated duodenum; test: Spasmolytic activity on isolated duodenum, barium chloride contraction (Magnus); conditions: for IC50: Rattus norvegicus; for relative activity, ratio of ED 50 (papaverine hydrochloride = R): 2 = twice the activity of papaverine hydrochloride, head is drawing 18
Experimental: Spasmolytic activity was studied on a rat's isolated duodenum maintained in a survival medium of an aerated Tyrode solution heated to 38° C, according to the technique of Magnus (Magnus R. -- Archiv. ges. Physiol., 1905, 180, 1-71).
The contracting agent was barium chloride, the reference antagonist agent being papaverine hydrochloride (R). The average activity of compounds of formula I (X) compared to that of the reference agent were expressed by calculating the ratio of 50 efficient doses (ED 50) determined graphically on logarithmic paper: [formula]
For example: a substance having a relative activity expressed by the figure 2 has an activity equal to twice that of papaverine hydrochloride.

[2] = system: phenylparaquinone (P.P.Q.) painful syndrome in mouse; test: Analgesic and anti-inflammatory activity (P.P.Q. painful syndrome); type: in vivo; conditions: for a (X): percentage activity, P.P.Q.: 50 mg/kg digestively; for ratio of activity of X in relation to R, P.P.Q.: X 50 mg/kg vs Glafenine 25 mg/kg, 0.5 = half the activity of reference, head is drawing 19
Experimental: The intraperitoneal injection of phenylparaquinone (P.P.Q.) to a mouse causes the appearance of a painful syndrome appearing within 5 minutes of the injection and disappearing after about 30 minutes (Siegmund E. A., Cadmus A., Lu G., J. Pharmacol. Exp. Therap. 1957, 119, 453).
This painful syndrome manifests itself in the animal by a series of characteristic crises more or less close together and fleeting, during which can be noted a twisting or stretching of the body, a hollowing of the sides and a stretching of the hind legs.
It is then possible to note the number of crises in a given interval of time.
The preventive administration of analgesic or anti-inflammatory substances prevents the appearance of the crises and reduces the frequence thereof.
The reference substance used in the tests (R) is the ester of N-(7-chloro-4-quinolyl) anthrilic acid and 2,3-dihydroxy n. propanol (known under the trademark "Glafenine").
It is administered orally as a dose of 25 mg/kg.
The compounds of formula I (X) were administered digestively as a dose of 50 mg/kg.
The interval of time (t) chosen for calculating the analgesic activity was between 10 and 15 minutes after injection of P.P.Q. which is the period of maximum frequency of the crises. This activity was expressed in the following manner;
n: the number of crises observed in controle mice;
n': the number of crises observed in mice previously treated with the reference substance (R);
n": the number of crises observed in mice having received substance (X)
The percentage activity of R is equal to: [formula] The percentage activity of X is equal to: [formula] The activity of X in relation to R is estimated by the ratio: [formula]

[3] = system: human blood-plaques; test: Blood-plaque aggregation inhibition in B.P.R.P. (D.P.A., adrenaline, collagene); conditions: for a(X): blood-plaque aggregation inhibiting activity, Adrenaline / a(X): blood-plaque aggregation inhibiting activity, D.P.A.: compound 2.5 × 10^-5 g/ml; for ratio of activities a(X)/a(R), Adrenaline / ratio of activities a(X)/a(R), D.P.A.: X 2.5 × 10^-5 g/ml vs Dipyridamole 5 × 10^-4 g/ml; for ratio of activities a(X)/a(R), Adrenaline: head is drawing 15; for a(X): blood-plaque aggregation inhibiting activity, Collagene: compound 2 × 10^-5 g/ml; for ratio of activities a(X)/a(R), Collagene: X 2 × 10^-5 g/ml vs Dipyridamole 2 × 10^-4 g/ml, head is drawing 16; for ratio of activities a(X)/a(R), D.P.A.: head is drawing 13
[4] = Acute oral toxicity (LD 50), Miller and Tainter; conditions: mouse, in vivo; for LD50 at 168 h: mice deprived of food 18 hours, oral (esophageal probe), mortality followed seven days, read-out: LD 50 (50% lethal dose)
Experimental: Acute toxicity of compounds of formula (I) was measured orally (esophageal probe) on mice deprived of food 18 hours before the beginning of the test. The products were suspended in a solution of dilute carboxymethyl cellulose. Calculation of the 50% lethal dose was carried out according to the method of Miller and Tainter (Miller L. C., Tainter M. L., proc. Soc. Exptl. Biol. Med. 1944, 57, 261-264).
The mortality rate was checked for seven days following the treatment.

[5] = system: isolated heart of a guinea-pig; test: Vasodilatatory activity, coronary flow of isolated perfused heart; conditions: for activation at 10 µg/mL: Cavia porcellus, compound 1 × 10^-5 g/ml, Locke solution, 37° C, at climax of activity, read-out: P (X): percentage of coronary flow increase; for ratio P (X)/P (R): X and Dipyridamole both 1 × 10^-5 g/ml, head is drawing 21
Experimental: The percentage of flow increase (P) is calculated at the climax of the activity of X or R.

[6] = crises 10 to 15 minutes after P.P.Q.
[7] = barium chloride contraction, Tyrode solution, 38° C, read-out: ED 50 (X), spasmolytic activity

| SMILES | a (X): percentage activity, P.P.Q. [2, 6] [%] | ratio of activity of X in relation to R, P.P.Q. [2] | a(X): blood-plaque aggregation inhibiting activity, Adrenaline ([3]; adrenaline-induced) [%] | ratio of activities a(X)/a(R), Adrenaline [3] | a(X): blood-plaque aggregation inhibiting activity, Collagene ([3]; collagene-induced) [%] | ratio of activities a(X)/a(R), Collagene [3] | LD50 at 168 h [4] [mg/kg] | ratio of activities a(X)/a(R), D.P.A. [3] | further results |
| --- | --- | --- | --- | --- | --- | --- | --- | --- | --- |
| COc1ccc(Cc2nccc3cc(OC)c(OC)cc23)cc1OC [papaverine hydrochloride, reference compound] |  |  |  |  |  |  |  |  | IC50 ([1]; read-out: ED 50 (R), spasmolytic activity of reference, barium chloride contraction, Tyrode solution, 38° C, tested beside the compound of the same line): 4.25 µg/mL |
| C=CCN(CC=C)CCC(=O)c1cc2ccccc2s1 [Compound 3] | 58 | 0.75 | 64 | 7 × 10^-1 | 17 | 2.5 × 10^-1 | 1000 |  |  |
| OCCN(CCO)c1nc(N2CCCCC2)c2nc(N(CCO)CCO)nc(N3CCCCC3)c2n1 [Dipyridamole, reference compound] |  |  |  |  |  |  |  |  | a(R): blood-plaque aggregation inhibiting activity of reference, D.P.A. ([3]; D.P.A.-induced, reference 5 × 10^-4 g/ml, tested beside the compound of the same line): 72% and 53%; a(R): blood-plaque aggregation inhibiting activity of reference, Adrenaline ([3]; adrenaline-induced, reference 5 × 10^-4 g/ml, tested beside the compound of the same line): 96% and 91% and 90% and 80%; a(R): blood-plaque aggregation inhibiting activity of reference, Collagene ([3]; collagene-induced, reference 2 × 10^-4 g/ml, tested beside the compound of the same line): 36% and 42% and 67%; LD50 ([4]; po, reference product of the aggregation test, source of value not given): 2150 mg/kg |
| O=C(CCN1CCOCC1)c1cc2ccccc2s1 [Compound 5] | 54 | 0.76 | 44 | 4.6 × 10^-1 | 45 | 1.25 | > 1100 |  |  |
| O=C(CCN1CCCCCC1)c1cc2ccccc2s1 [Compound 1, 1-(benzothien-2'yl) 3-N-perhydroazepino propanone oxalate] |  |  | 6 | 6 × 10^-2 | 91 | 2.5 | 1200 | 7.5 × 10^-1 | activation at 10 µg/mL [5]: 66%; ratio P (X)/P (R) [5]: 0.87; a(X): blood-plaque aggregation inhibiting activity, D.P.A. ([3]; D.P.A.-induced): 54% |
| O=C(OCC(O)CO)c1ccccc1Nc1ccnc2cc(Cl)ccc12 (stereo not shown) [Glafenine, ester of N-(7-chloro-4-quinolyl) anthrilic acid and 2,3-dihydroxy n. propanol, reference compound] |  |  |  |  |  |  |  |  | a (R): percentage activity of reference, P.P.Q. ([2]; 25 mg/kg orally, crises 10 to 15 minutes after P.P.Q., tested beside the compound of the same line): 71% and 77% and 75% |
| CN(C)CCC(=O)c1cc2ccccc2s1 [Compound 2] | 36 | 0.51 | 98 | 1 | 74 | 1.75 | 960 | 1.4 | activation at 10 µg/mL [5]: 64%; ratio P (X)/P (R) [5]: 0.4; relative activity, ratio of ED 50 (papaverine hydrochloride = R) [1]: 2.64; IC50 [1, 7]: 1.6 µg/mL (≈ 6.86 µM) |
| O=C(CCN1CCCCC1)c1cc2ccccc2s1 [Compound 4] | 25 | 0.33 | 89 | 1.1 | 91 | 2.2 | > 1100 | 1.2 | a(X): blood-plaque aggregation inhibiting activity, D.P.A. ([3]; D.P.A.-induced): 63%; relative activity, ratio of ED 50 (papaverine hydrochloride = R) [1]: 1.69; IC50 [1, 7]: 3.1 µg/mL (≈ 11.3 µM) |
